Measured values reported in ChEMBL document CHEMBL6134833, “Recent advances in CDC7 kinase inhibitors: Novel strategies for the treatment of cancers and neurodegenerative diseases” (Eur J Med Chem, 2025).

Tests used:
[1] = target: Cyclin-dependent kinase 2/cyclin A (Homo sapiens, UniProt P24941); assay: Inhibition of CDK2/Cyclin A (unknown origin); type: protein-complex assay
[2] = target: Casein kinase 2 (Homo sapiens, UniProt P67870+P68400+P19784+Q8NEV1); assay: Inhibition of CK2 (unknown origin); type: protein assay
[3] = Metabolic stability in rat liver microsome assessed as microsomal clearance; type: ADME; conditions: microsomes
[4] = Metabolic stability in human liver microsome assessed as microsomal clearance; type: ADME; conditions: microsomes
[5] = Inhibition of MCM2 (unknown origin); set-up: species or system Homo sapiens
[6] = target: CDK3/Cyclin E (Homo sapiens, UniProt Q00526); assay: Inhibition of CDK3/cyclin E1 (unknown origin) by ADP-Glo kinase assay; type: protein-complex assay
[7] = target: T1, Cell division cycle 7-related protein kinase (Homo sapiens, UniProt O00311); assay: Inhibition of CDC7 (unknown origin)
[8] = target: T1, Cell division cycle 7-related protein kinase; assay: Inhibition of GST full length human CDC7 (1 to 574 residues) expressed in baculovirus expression system

T1 sequence (O00311 whole entry, the tested form may be a part): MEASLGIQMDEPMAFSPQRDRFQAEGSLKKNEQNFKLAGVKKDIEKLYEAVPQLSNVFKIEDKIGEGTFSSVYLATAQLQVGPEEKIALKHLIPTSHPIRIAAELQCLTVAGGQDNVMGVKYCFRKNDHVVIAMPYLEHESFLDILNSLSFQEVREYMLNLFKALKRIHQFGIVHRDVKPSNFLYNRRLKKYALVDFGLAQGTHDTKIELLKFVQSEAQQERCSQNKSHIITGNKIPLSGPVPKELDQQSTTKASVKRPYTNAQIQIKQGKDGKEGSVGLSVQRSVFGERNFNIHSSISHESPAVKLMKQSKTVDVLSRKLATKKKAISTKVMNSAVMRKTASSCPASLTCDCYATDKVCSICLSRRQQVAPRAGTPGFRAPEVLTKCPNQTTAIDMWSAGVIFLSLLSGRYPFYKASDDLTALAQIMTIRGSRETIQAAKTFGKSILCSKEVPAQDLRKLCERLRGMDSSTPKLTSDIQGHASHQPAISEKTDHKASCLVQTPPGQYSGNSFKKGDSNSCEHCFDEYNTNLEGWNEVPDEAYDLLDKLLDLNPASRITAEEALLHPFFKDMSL
Chain of CDK3/Cyclin E (P24864 whole entry): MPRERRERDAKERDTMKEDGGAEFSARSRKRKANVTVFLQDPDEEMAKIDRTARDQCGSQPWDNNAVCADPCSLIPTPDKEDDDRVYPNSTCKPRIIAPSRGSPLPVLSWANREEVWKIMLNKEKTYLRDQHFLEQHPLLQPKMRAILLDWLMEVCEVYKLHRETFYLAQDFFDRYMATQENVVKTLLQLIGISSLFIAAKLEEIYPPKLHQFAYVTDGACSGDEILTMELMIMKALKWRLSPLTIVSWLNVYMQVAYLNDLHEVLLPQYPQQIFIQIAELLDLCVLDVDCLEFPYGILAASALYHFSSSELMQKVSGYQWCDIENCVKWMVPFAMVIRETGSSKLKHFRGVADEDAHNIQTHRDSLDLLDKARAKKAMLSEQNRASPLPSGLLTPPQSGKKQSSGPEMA
Chain of CDK3/Cyclin E (Q00526 whole entry): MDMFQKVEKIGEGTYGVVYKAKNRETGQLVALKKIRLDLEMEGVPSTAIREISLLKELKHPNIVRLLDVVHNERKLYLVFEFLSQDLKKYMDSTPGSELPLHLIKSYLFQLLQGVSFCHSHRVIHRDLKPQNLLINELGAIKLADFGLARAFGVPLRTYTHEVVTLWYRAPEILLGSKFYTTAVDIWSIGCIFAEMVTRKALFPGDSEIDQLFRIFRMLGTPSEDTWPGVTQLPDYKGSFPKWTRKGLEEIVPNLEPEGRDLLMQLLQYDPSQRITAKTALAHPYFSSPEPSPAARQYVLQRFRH

Which IC50 [1] does the source give for `NC(=O)c1cc(-c2ccncc2)[nH]c1-c1ccccc1` here?
Its IC50 is 1100 nM.

For `O=c1[nH]cnc2c1oc1ccc(Br)cc12`, which IC50 [2] is on record?
Its IC50 is 1500 nM.

For `O=c1[nH]c([C@@H]2CCCN2)nc2c1oc1ccc(Cl)cc12`, which IC50 [2] is on record?
Its IC50 is 215 nM.

For `Nc1nccc(-n2cc(-c3cccnc3Cl)c3cnc(Cl)cc32)n1`, which CLH [3] is on record?
Its CLH is 102 µL/min/µg.

What about the CLH [4] of the same compound?
Its CLH is 30 µL/min/µg.

For `Nc1nccc(-n2cc(-c3cccnc3Cl)c3cnccc32)n1`, which CLH [3] is on record?
The CLH was 72 µL/min/µg.

What about the CLH [4] of the same compound?
Its CLH is 21 µL/min/µg.

What does the source list for `Nc1nccc(-n2ccc3ncccc32)n1`?
CLH [3]: 50 µL/min/µg; CLH [4]: 60 µL/min/µg

With `Nc1nccc(-n2ccc3cnccc32)n1` as the compound, how does the CLH [3] read?
Its CLH is 101 µL/min/µg.

And the CLH [4]?
Its CLH is 62 µL/min/µg.

Which results are given for `Cc1n[nH]cc1-c1cc2nc([C@@H]3CCCCN3)[nH]c(=O)c2s1`?
IC50 [5]: 36 nM; IC50 [6]: 6500 nM

For `N[C@H](c1nc2cc(-c3ccncc3F)sc2c(=O)[nH]1)C1CC1`, which IC50 [7] is on record?
Its IC50 is less than 1000 nM.

For `Cn1nccc1-c1nc(C2CCOCC2)c(Cl)c(=O)[nH]1`, which IC50 [8] is on record?
The IC50 was 91.2 nM.

Which IC50 [7] does the source give for `O=c1[nH]c([C@@H]2CC3CCN2CC3)nc2c3c(sc12)-c1c[nH]nc1CCC3` here?
The IC50 was 3020 nM.

Which IC50 [7] does the source give for `Cc1[nH]c(=O)c2sc(-c3cn[nH]c3)c3c2c1CCCO3` here?
The IC50 was less than 1000 nM.
